Assay results from patent US4496566A, “Naphthyridine derivatives” (Dainippon Pharmaceutical Co., Ltd., priority 1980, dated 1985).
Converted amounts (≈) assume the structure as drawn.

Columns and labels:
[1] = Acute oral toxicity in mice; details: mouse, in vivo, male ddY mice, deaths counted after 7 days, Behrens-Kaerber method, read-out: median lethal dose (LD50)
Procedure: A suspension containing each of compound 1 of the invention and compound A in various concentrations was orally given to male mice (ddY) at a volume of 0.1 ml per 10 g of body weight.

[2] = tested on: Streptococcus pyogenes A65; experiment: MIC by agar dilution method; assay type: cell-based; details: read-out: minimum inhibitory concentration (MIC)
[3] = tested on: Escherichia coli NIHJ JC-2; experiment: MIC by agar dilution method; assay type: cell-based; details: NIHJJC2, read-out: minimum inhibitory concentration (MIC)
Escherichia coli P-5101 [4] = experiment: In vivo therapeutic efficacy against systemic infections in mice; details: P5101, 168 h, po, twice, about 5 minutes and 6 hours after intraperitoneal infection, male ddY mice, observed 7 days, read-out: median effective dose (ED50)
Source text: (§1) Compound 1 of this invention obtained by the procedure described in Example 1 and compounds A and B were each suspended in a 0.2% aqueous solution of sodium carboxymethylcellulose. Each of the solutions was orally administered to mice infected with each of the test organisms under the conditions described below, and the median effective doses (ED50; mg/kg) obtained are shown in Table II. Male mice (ddY) weighing about 20 g (3) Escherichia coli P-5101: Intraperitoneal infection with about 9×10^6 cells per mouse suspended in trypto-soy broth with 4% mucin. […] Exp. Path. Pharm., 162, 480 (1931)].

[5] = tested on: Salmonella typhimurium S-9; experiment: MIC by agar dilution method; assay type: cell-based; details: Salmonella enterica, read-out: minimum inhibitory concentration (MIC)
[6] = tested on: Pseudomonas aeruginosa Tsuchijima; experiment: MIC by agar dilution method; assay type: cell-based; details: read-out: minimum inhibitory concentration (MIC)
[7] = tested on: Streptococcus pyogenes A65; experiment: In vivo therapeutic efficacy against systemic infections in mice; details: po, twice, about 5 minutes and 6 hours after intraperitoneal infection, male ddY mice, read-out: median effective dose (ED50)
Source text: as §1, with “(2) Streptococcus pyogenes […]” for “(3) Escherichia coli P-5101:”, “3×10^7” for “9×10^6”, “brain-heart infusion broth.” for “trypto-soy broth with 4% mucin.”

[8] = tested on: Pseudomonas aeruginosa No. 12; experiment: as above; details: po, twice, about 5 minutes and 6 hours after intraperitoneal infection, male ddY mice, read-out: median effective dose (ED50)
Source text: as §1, with “(4) Pseudomonas aeruginosa No. 12:” for “(3) Escherichia coli P-5101:”, “4×10^3” for “9×10^6”

[9] = tested on: Enterobacter cloacae P-2540; experiment: MIC by agar dilution method; assay type: cell-based; details: P2540, read-out: minimum inhibitory concentration (MIC)
[10] = tested on: Staphylococcus aureus No. 50774; experiment: In vivo therapeutic efficacy against systemic infections in mice; details: NO.50774, 336 h, po, twice, about 5 minutes and 6 hours after intravenous infection, male ddY mice, observed 14 days, read-out: median effective dose (ED50)
Source text: as §1, with “(1) Staphylococcus aureus No. 50774: Intravenous” for “(3) Escherichia coli P-5101: Intraperitoneal”, “5×10^8” for “9×10^6”, “saline.” for “trypto-soy broth with 4% mucin.”

[11] = tested on: Staphylococcus aureus No. 50774; experiment: MIC by agar dilution method; assay type: cell-based; details: Gram-positive bacteria, read-out: minimum inhibitory concentration (MIC)
[12] = tested on: Pseudomonas aeruginosa No. 12; experiment: MIC by agar dilution method; assay type: cell-based; details: read-out: minimum inhibitory concentration (MIC)
[13] = tested on: Shigella flexneri 4a P-330; experiment: MIC by agar dilution method; assay type: cell-based; details: 4AP330, read-out: minimum inhibitory concentration (MIC)
Procedure: (§2) The minimum inhibitory concentrations (MIC: μg/ml) of the following compounds were measured by the agar dilution method according to the procedure described in Chemotherapy, Vol. 22, No. 16, page 1126 (1974).

[14] = tested on: Klebsiella pneumoniae No. 13; experiment: MIC by agar dilution method; assay type: cell-based; details: read-out: minimum inhibitory concentration (MIC)
Procedure: as §2

Shigella flexneri 2a = experiment: MIC by agar dilution method; assay type: cell-based; details: read-out: minimum inhibitory concentration (MIC)
Procedure: as §2

Proteus mirabilis P-2381 = experiment: MIC by agar dilution method; assay type: cell-based; details: P2381, read-out: minimum inhibitory concentration (MIC)
Procedure: as §2

[15] = tested on: Serratia marcescens IFO 3736; experiment: MIC by agar dilution method; assay type: cell-based; details: IFO3736, read-out: minimum inhibitory concentration (MIC)
Procedure: as §2

Proteus morganii Kono = experiment: MIC by agar dilution method; assay type: cell-based; details: Morganella morganii, read-out: minimum inhibitory concentration (MIC)
Procedure: as §2

[16] = tested on: Staphylococcus aureus 209P JC-1; experiment: MIC by agar dilution method; assay type: cell-based; details: Gram-positive bacteria, read-out: minimum inhibitory concentration (MIC)
Procedure: as §2

[17] = tested on: Corynebacterium pyogenes C-21; experiment: MIC by agar dilution method; assay type: cell-based; details: Trueperella pyogenes, C21, read-out: minimum inhibitory concentration (MIC)
[18] = tested on: Salmonella enteritidis No. 1891; experiment: MIC by agar dilution method; assay type: cell-based; details: Salmonella enterica, read-out: minimum inhibitory concentration (MIC)
[19] = tested on: Streptococcus faecalis P-2473; experiment: MIC by agar dilution method; assay type: cell-based; details: Enterococcus faecalis, P2473, read-out: minimum inhibitory concentration (MIC)
Escherichia coli P-5101 [20] = experiment: MIC by agar dilution method; assay type: cell-based; details: P5101, read-out: minimum inhibitory concentration (MIC)
Escherichia coli P-140a = experiment: MIC by agar dilution method; assay type: cell-based; details: P140A, read-out: minimum inhibitory concentration (MIC)

Structure (SMILES) | MIC [2] [µg/mL] | MIC [3] [µg/mL] | ED50 (Escherichia coli P-5101 [4]) [mg/kg] | MIC [5] [µg/mL] | MIC [6] [µg/mL] | ED50 [7] [mg/kg] | ED50 [8] [mg/kg] | MIC [9] [µg/mL] | ED50 [10] [mg/kg] | MIC [11] [µg/mL] | MIC [12] [µg/mL] | MIC [13] [µg/mL] | MIC [14] [µg/mL] | MIC (Shigella flexneri 2a) [µg/mL] | MIC (Proteus mirabilis P-2381) [µg/mL] | MIC [15] [µg/mL] | MIC (Proteus morganii Kono) [µg/mL] | MIC [17] [µg/mL] | MIC [18] [µg/mL] | MIC (Escherichia coli P-140a) [µg/mL] | also measured
CN1CCN(c2nc3c(cc2F)c(=O)c(C(=O)O)cn3CCF)CC1 [Compound 1, 6-Fluoro-1-(2-fluoroethyl)-1,4-dihydro-7-(4-methyl-1-piperazinyl)-4-oxo-1,8-naphthyridine-3-carboxylic acid] | 12.5 (≈ 35.5 µM) | 0.2 (≈ 0.568 µM) | 0.52 | 0.2 (≈ 0.568 µM) | 3.13 (≈ 8.88 µM) | 14.9 | 4.2 | 0.2 (≈ 0.568 µM) | 1.4 | 0.39 (≈ 1.11 µM) | 1.56 (≈ 4.43 µM) | 0.1 (≈ 0.284 µM) | 0.39 (≈ 1.11 µM) | 0.39 (≈ 1.11 µM) | 0.78 (≈ 2.21 µM) | 1.56 (≈ 4.43 µM) | 0.39 (≈ 1.11 µM) | 6.25 (≈ 17.7 µM) | 0.1 (≈ 0.284 µM) | 0.1 (≈ 0.284 µM) | LD50 at 168 h [1]: > 1800 mg/kg; MIC [16]: 0.78 µg/mL (≈ 2.21 µM); MIC [19]: 12.5 µg/mL (≈ 35.5 µM); MIC (Escherichia coli P-5101 [20]): 0.1 µg/mL (≈ 0.284 µM)
CCn1cc(C(=O)O)c(=O)c2cc(F)c(N3CCN(C)CC3)nc21 [Compound A, 1-Ethyl-6-fluoro-1,4-dihydro-7-(4-methyl-1-piperazinyl)-4-oxo-1,8-naphthyridine-3-carboxylic acid] | 6.25 (≈ 18.7 µM) | 0.39 (≈ 1.17 µM) | – | – | – | > 50 | – | – | – | – | – | 0.78 (≈ 2.33 µM) | – | 0.39 (≈ 1.17 µM) | 3.13 (≈ 9.36 µM) | 1.56 (≈ 4.67 µM) | 0.78 (≈ 2.33 µM) | 6.25 (≈ 18.7 µM) | 0.1 (≈ 0.299 µM) | 0.39 (≈ 1.17 µM) | –
O=C(O)c1cn(CCF)c2nc(N3CCNCC3)c(F)cc2c1=O [Compound B, 6-Fluoro-1-(2-fluoroethyl)-1,4-dihydro-4-oxo-7-(1-piperazinyl)-1,8-naphthyridine-3-carboxylic acid] | 12.5 (≈ 36.9 µM) | 0.2 (≈ 0.591 µM) | 3 | 0.1 (≈ 0.296 µM) | 0.78 (≈ 2.31 µM) | 50 | 27.2 | 0.1 (≈ 0.296 µM) | 11.5 | 1.56 (≈ 4.61 µM) | 0.78 (≈ 2.31 µM) | 0.1 (≈ 0.296 µM) | 0.78 (≈ 2.31 µM) | 0.2 (≈ 0.591 µM) | 0.39 (≈ 1.15 µM) | 0.39 (≈ 1.15 µM) | 0.2 (≈ 0.591 µM) | 1.56 (≈ 4.61 µM) | 0.1 (≈ 0.296 µM) | 0.1 (≈ 0.296 µM) | MIC [16]: 0.39 µg/mL (≈ 1.15 µM); MIC [19]: 12.5 µg/mL (≈ 36.9 µM); MIC (Escherichia coli P-5101 [20]): 0.1 µg/mL (≈ 0.296 µM)
